System: U87MG cells
Assay: Cytotoxicity assay (cell viability, CellTiter 96 Aqueous MTS)
Format: cell-based
Conditions: Homo sapiens, U-87 MG, 72 h, 72 hours incubation, starting concentration 50 uM, 9 point half log dilution, average where tested repeatedly
Description: Example 3: Cytotoxicity Assay
U87MG cells were plated at a density of 7×10^3 cells/well and allowed to seed overnight. Cells were then treated with compounds from Table 1 or CMPD-1 (4-(2′-fluoro-[1,1′-biphenyl]-4-yl)-N-(4-hydroxyphenyl)butanamide as a positive control) were added to cells at a starting concentration of 50 uM, with a 9 point half log dilution, and incubated for 72 hours prior to viability determination. IC50 values were calculated from cell viability as measured using the CellTiter 96® Aqueous MTS reagent from Promega©, and the results are shown in Table 2.

Row | Compound | IC50
1 | COc1ccc(CC(=O)NCCCc2ccc(-c3cccc(OC)c3F)cc2)cc1 [Compound 245, N-(3-(2′-fluoro-3′-methoxy-[1,1′-biphenyl]-4-yl)propyl)-2-(4-methoxyphenyl)acetamide] | 501 to 1000 nM
2 | CC(C)c1cc(C(=O)NCCCc2ccc(-c3ccccc3F)cc2)n(C)n1 [Compound 142, N-(3-(2′-fluoro-[1,1′-biphenyl]-4-yl)propyl)-3-isopropyl-1-methyl-1H-pyrazole-5-carboxamide] | > 5000 nM
3 | O=C(NCCCc1ccc(-c2ccccc2F)cc1)c1ccc[nH]1 [Compound 134, N-(3-(2′-fluoro-[1,1′-biphenyl]-4-yl)propyl)-1H-pyrrole-2-carboxamide] | 1000 to 5000 nM
4 | COc1ccc(CNC(=O)CCCc2ccc(-c3ccccc3F)cc2)cc1 [Compound 44, 4-(2′-fluoro-[1,1′-biphenyl]-4-yl)-N-(4-methoxybenzyl)butanamide] | 501 to 1000 nM
5 | O=C(NCCCc1ccc(-c2ccccc2F)cc1)c1ccc2[nH]nnc2c1 [Compound 70, N-(3-(2′-fluoro-[1,1′-biphenyl]-4-yl)propyl)-1H-benzo[d][1,2,3]triazole-5-carboxamide] | > 5000 nM
6 | O=C(CCCc1ccc(-c2ccc3[nH]cnc(=O)c3c2)cc1)Nc1cccnc1 [Compound 223, 4-(4-(4-oxo-1,4-dihydroquinazolin-6-yl)phenyl)-N-(pyridin-3-yl)butanamide] | > 5000 nM
7 | COc1ccc(CNC(=O)OCCc2ccc(-c3ccccc3F)cc2)cc1 [Compound 273, 2-(2′-fluoro-[1,1′-biphenyl]-4-yl)ethyl (4-methoxybenzyl)carbamate] | > 5000 nM
8 | O=C(NCCCc1ccc(-c2ccccc2F)cc1)c1nc2ccccc2[nH]1 [Compound 84, N-(3-(2′-fluoro-[1,1′-biphenyl]-4-yl)propyl)-1H-benzo[d]imidazole-2-carboxamide] | > 5000 nM
9 | Cn1cc2c(-c3ccc(CCCC(=O)Nc4cccnc4)cc3)cccc2n1 [Compound 165, 4-(4-(2-methyl-2H-indazol-4-yl)phenyl)-N-(pyridin-3-yl)butanamide] | 1000 to 5000 nM
10 | Cc1ccc(NC(=O)CCCc2ccc(-c3ccccc3F)cc2)cn1 [Compound 45, 4-(2′-fluoro-[1,1′-biphenyl]-4-yl)-N-(6-methylpyridin-3-yl)butanamide] | < 500 nM
11 | O=C(NCCCc1ccc(-c2ccccc2F)cc1)c1c[nH]c2ccccc12 [Compound 117, N-(3-(2′-fluoro-[1,1′-biphenyl]-4-yl)propyl)-1H-indole-3-carboxamide] | > 5000 nM
12 | Cc1cc(C(=O)NCCCc2ccc(-c3ccccc3F)cc2)nn1C [Compound 125, N-(3-(2′-fluoro-[1,1′-biphenyl]-4-yl)propyl)-1,5-dimethyl-1H-pyrazole-3-carboxamide] | > 5000 nM
13 | O=C(CCCc1ccc(-c2ccc3nonc3c2)cc1)Nc1cccnc1 [Compound 161, 4-(4-(benzo[c][1,2,5]oxadiazol-5-yl)phenyl)-N-(pyridin-3-yl)butanamide] | > 5000 nM
14 | Cc1cc(C(=O)NCCCc2ccc(-c3ccccc3F)cc2)no1 [Compound 90, N-(3-(2′-fluoro-[1,1′-biphenyl]-4-yl)propyl)-5-methylisoxazole-3-carboxamide] | < 500 nM
15 | Cc1nn(C)c(C)c1-c1ccc(CCCC(=O)Nc2cccnc2)cc1 [Compound 216, N-(pyridin-3-yl)-4-(4-(1,3,5-trimethyl-1H-pyrazol-4-yl)phenyl)butanamide] | > 5000 nM
16 | O=C(CCCc1ccc(-c2ccncc2)cc1)Nc1cccnc1 [Compound 202, N-(pyridin-3-yl)-4-(4-(pyridin-4-yl)phenyl)butanamide] | > 5000 nM
17 | O=C(CCCc1ccc(-c2ccc3[nH]ncc3c2)cc1)Nc1cccnc1 [Compound 206, 4-(4-(1H-indazol-5-yl)phenyl)-N-(pyridin-3-yl)butanamide] | < 500 nM
18 | Cc1ccc2cc(-c3ccc(CCCC(=O)Nc4cccnc4)cc3)ccc2n1 [Compound 199, 4-(4-(2-methylquinolin-6-yl)phenyl)-N-(pyridin-3-yl)butanamide] | 501 to 1000 nM
19 | O=C(CCCc1ccc(-c2ccc3c(c2)CCC(=O)N3)cc1)Nc1cccnc1 [Compound 196, 4-(4-(2-oxo-1,2,3,4-tetrahydroquinolin-6-yl)phenyl)-N-(pyridin-3-yl)butanamide] | < 500 nM
20 | O=C(NCCCc1ccc(-c2ccccc2F)cc1)c1cncnc1 [Compound 67, N-(3-(2′-fluoro-[1,1′-biphenyl]-4-yl)propyl)pyrimidine-5-carboxamide] | < 500 nM
21 | CN(C(=O)CCCc1ccc(-c2ccccc2F)cc1)c1cccnc1 [Compound 52, 4-(2′-fluoro-[1,1′-biphenyl]-4-yl)-N-methyl-N-(pyridin-3-yl)butanamide] | > 5000 nM
22 | O=C(CCCc1ccc(-c2ccc(F)cc2F)cc1)Nc1cccnc1 [Compound 157, 4-(2′,4′-difluoro-[1,1′-biphenyl]-4-yl)-N-(pyridin-3-yl)butanamide] | 1000 to 5000 nM

Row | Compound | IC50
23 | O=C(CCCc1ccc(-c2ccccc2F)cc1)Nc1ccc(C(F)(F)F)nc1 [Compound 51, 4-(2′-fluoro-[1,1′-biphenyl]-4-yl)-N-(6-(trifluoromethyl)pyridin-3-yl)butanamide] | > 5000 nM
24 | O=C(CCCc1ccc(-c2ccc3c(c2)OCC(=O)N3)cc1)Nc1cccnc1 [Compound 224, 4-(4-(3-oxo-3,4-dihydro-2H-benzo[b][1,4]oxazin-7-triazoloyl)phenyl)-N-(pyridin-3-yl)butanamide] | < 500 nM
25 | COc1cccc(-c2ccc(CCCNC(=O)c3ccc(C)nc3)cc2)c1F [Compound 234, N-(3-(2′-fluoro-3′-methoxy-[1,1′-biphenyl]-4-yl)propyl)-6-methylnicotinamide] | < 500 nM
26 | O=C(CCCc1ccc(-c2cnc3ccccc3c2)cc1)Nc1cccnc1 [Compound 183, N-(pyridin-3-yl)-4-(4-(quinolin-3-yl)phenyl)butanamide] | 1000 to 5000 nM
27 | O=C(NCCCc1ccc(-c2ccccc2F)cc1)C1CC(F)(F)C1 [Compound 75, 3,3-difluoro-N-(3-(2′-fluoro-[1,1′-biphenyl]-4-yl)propyl)cyclobutane-1-carboxamide] | > 5000 nM
28 | O=C(CCCc1ccc(-c2cccc(Cl)c2F)cc1)Nc1cccnc1 [Compound 225, 4-(3′-chloro-2′-fluoro-[1,1′-biphenyl]-4-yl)-N-(pyridin-3-yl)butanamide] | > 5000 nM
29 | CN1CCC(C(=O)NCCCc2ccc(-c3ccccc3F)cc2)CC1 [Compound 87, N-(3-(2′-fluoro-[1,1′-biphenyl]-4-yl)propyl)-1-methylpiperidine-4-carboxamide] | > 5000 nM
30 | O=C(CCCc1ccc(-c2ccccc2F)cc1)NCc1ccncc1 [Compound 42, 4-(2′-fluoro-[1,1′-biphenyl]-4-yl)-N-(pyridin-4-ylmethyl)butanamide] | 1000 to 5000 nM
31 | Cc1cc(C(=O)NCCCc2ccc(-c3ccc4c(c3)OCC(=O)N4)cc2)n(C)n1 [Compound 313, 1,3-dimethyl-N-(3-(4-(3-oxo-3,4-dihydro-2H-benzo[b][1,4]oxazin-7-yl)phenyl)propyl)-1H-pyrazole-5-carboxamide] | < 500 nM
32 | Cc1ncccc1C(=O)NCCCc1ccc(-c2ccc3c(cnn3C)c2)cc1 [Compound 241, 2-methyl-N-(3-(4-(1-methyl-1H-indazol-5-yl)phenyl)propyl)nicotinamide] | < 500 nM
33 | O=C(CCCc1ccc(-c2ccc(-n3cccn3)cc2)cc1)Nc1cccnc1 [Compound 198, 4-(4′-(1H-pyrazol-1-yl)-[1,1′-biphenyl]-4-yl)-N-(pyridin-3-yl)butanamide] | 501 to 1000 nM
34 | COc1ncccc1-c1ccc(CCCC(=O)Nc2cccnc2)cc1 [Compound 178, 4-(4-(2-methoxypyridin-3-yl)phenyl)-N-(pyridin-3-yl)butanamide] | > 5000 nM
35 | Cn1cnc2ccc(-c3ccc(CCCC(=O)Nc4cccnc4)cc3)cc2c1=O [Compound 299, 4-(4-(3-methyl-4-oxo-3,4-dihydroquinazolin-6-yl)phenyl)-N-(pyridin-3-yl)butanamide] | > 5000 nM
36 | O=C(CCCc1ccc(-c2ccc3c(c2)CC(=O)N3)cc1)Nc1cccnc1 [Compound 222, 4-(4-(2-oxoindolin-5-yl)phenyl)-N-(pyridin-3-yl)butanamide] | < 500 nM
37 | COc1cccc(-c2ccc(CCCNC(=O)c3cccnc3C)cc2)c1F [Compound 317, N-(3-(2′-fluoro-3′-methoxy-[1,1′-biphenyl]-4-yl)propyl)-2-methylnicotinamide] | < 500 nM
38 | COc1ccc(CC(=O)NCCCc2ccc(-c3ccc4c(cnn4C)c3)cc2)cc1 [Compound 244, 2-(4-methoxyphenyl)-N-(3-(4-(1-methyl-1H-indazol-5-yl)phenyl)propyl)acetamide] | < 500 nM
39 | O=C(CCCc1ccc(-c2ccc3c(c2)OCCO3)cc1)Nc1cccnc1 [Compound 162, 4-(4-(2,3-dihydrobenzo[b][1,4]dioxin-6-yl)phenyl)-N-(pyridin-3-yl)butanamide] | 501 to 1000 nM
40 | Cc1nc(C(=O)NCCCc2ccc(-c3ccccc3F)cc2)cs1 [Compound 141, N-(3-(2′-fluoro-[1,1′-biphenyl]-4-yl)propyl)-2-methylthiazole-4-carboxamide] | > 5000 nM
41 | COc1ccc(CC(=O)NCCCc2ccc(-c3ccccc3F)cc2)c(OC)c1 [Compound 114, 2-(2,4-dimethoxyphenyl)-N-(3-(2′-fluoro-[1,1′-biphenyl]-4-yl)propyl)acetamide] | > 5000 nM
42 | Cn1ccc2cc(-c3ccc(CCCC(=O)Nc4cccnc4)cc3)cnc21 [Compound 294, 4-(4-(1-methyl-1H-pyrrolo[2,3-b]pyridin-5-yl)phenyl)-N-(pyridin-3-yl)butanamide] | 501 to 1000 nM
43 | Cc1cccc(-c2ccc(CCCC(=O)Nc3cccnc3)cc2)c1F [Compound 219, 4-(2′-fluoro-3′-methyl-[1,1′-biphenyl]-4-yl)-N-(pyridin-3-yl)butanamide] | < 500 nM

From patent US12247010B2, “Tubulin inhibitors” (LIN BIOSCIENCE PTY LTD., priority 2017, dated 2025)
